Results reported in patent US20250164463A1, “SCREENING METHOD AND THERAPEUTIC AGENT FOR MENTAL DISORDER” (Fujita Health University, priority 2022, published 2025).

Assays:
[1] = test system: myelin sheath marker (MAG) in prefrontal cortexes of mice after alcohol intake and alcohol abstinence; test: Immunohistochemical staining of prefrontal cortex with myelin sheath marker (MAG), myelin sheath formation enhancing effect; format: in vivo; settings: clemastine 10 mg/kg orally every day after end of EtOH administration, ImageJ, FIG. 8(b), 8(c)
Protocol: Mice (4 mice for each group) were administered EtOH in the same manner as in Examples 1 and 2. Control mice (4 mice for each group) were orally administered sterile water in the same amount as that in the mice administered EtOH. […] Frozen slices of prefrontal cortexes and hippocampuses of the mice prepared were heated in a 10 mM citrate buffer solution (pH 6.0) with a microwave oven for 5 minutes. After washed with PBS, the slices were subjected to blocking with 5% normal horse serum (Cat #S-2000, Vector Laboratories, Inc., Burlingame, CA, USA) in PBST for 1 hour. After that, the slices were caused to react with one of primary antibodies at 4° C. overnight. After washed with PBST, the slices were caused to react with a secondary antibody (1:2,000) at room temperature for 3 hours. The primary antibodies used were a mouse anti-CC1 antibody (1:500; Cat #MABF850, Millipore) and a goat anti-PDGFRα antibody (1:200; Cat #AF1062, R&D Systems Inc.)

[2] = test system: mice after alcohol intake and alcohol abstinence; test: Novelty suppressed feeding test (NSF) in mice after alcohol intake and alcohol abstinence; format: in vivo, C57BL/6J mice; settings: clemastine 10 mg/kg orally every day from end of EtOH administration to final day of behavioral tests; EtOH+clemastine group vs EtOH group; FIG. 5(b)
Protocol: (§1) Male C57BL/6J mice at the age of 4 weeks (P28) were used. The mice were accommodated in a plastic cage and maintained at a light-dark cycle of 12 hours (lighting at 8:00 A.M.) with ad libitum access to feed and water.
(§2) Sixteen mice were orally administered EtOH (3.0 g/kg; diluted to 25% with sterile water) intermittently from P28 to P45 for 10 days in total (once a day) according to the schedule of FIG. 1(a). Sixteen control mice were orally administered sterile water in the same amount as that in the mice administered EtOH.
(§3) All the behavioral experiments were performed between 10:00 A.M. and 6:00 P.M. To obtain an indicator of sociality, a social interaction test was conducted. To obtain an indicator of anxiety behavior, a marble-burying behavior test and a novelty suppressed feeding test were conducted. To obtain an indicator of cognitive function, a novel object recognition test was conducted. To reduce influences from previous experiments, the social interaction test, the marble-burying behavior test, the novelty suppressed feeding test, and the novel object recognition test were conducted in the stated order. […]
The novelty suppressed feeding test was conducted by a method in conformity with a previous report (Lu Q et al., Behav Brain Res. 2019 Oct. 17; 372: 112053). […] A latency time taken for feed intake was recorded. […]

[3] = test system: mice after alcohol intake and alcohol abstinence; test: Marble-burying behavior test (MB) in mice after alcohol intake and alcohol abstinence; format: in vivo, C57BL/6J mice; settings: clemastine 10 mg/kg orally every day from end of EtOH administration to final day of behavioral tests; EtOH+clemastine group vs EtOH group; FIG. 5(b)
Protocol: as §1, §2, §3
The marble-burying behavior test was conducted by a method in conformity with a previous report (Alkam T et al., Behav Brain Res. 2013 Feb. 15; 239: 80-9). […] When ⅔ of the surface area of a marble was covered with the sawdust, the marble was counted as being buried. […]

[4] = test system: mice after alcohol intake and alcohol abstinence; test: Social interaction test (SIT) in mice after alcohol intake and alcohol abstinence; format: in vivo, C57BL/6J mice; settings: clemastine 10 mg/kg orally every day from end of EtOH administration to final day of behavioral tests; EtOH+clemastine group vs EtOH group; FIG. 5(b)
Protocol: as §1, §2
All the behavioral experiments were performed between 10:00 A.M. and 6:00 P.M. To obtain an indicator of sociality, a social interaction test was conducted. To obtain an indicator of anxiety behavior, a marble-burying behavior test and a novelty suppressed feeding test were conducted. To obtain an indicator of cognitive function, a novel object recognition test was conducted. […]
The social interaction test was conducted by a method in conformity with a previous report (Mouri A et al., J Neurosci. 2012 Mar. 28; 32(13): 4562-80). […] A time length of a social interaction (e.g., smelling each other, grooming each other, pursuing, mounting, or crawling) was recorded. […]

CN1CCC[C@@H]1CCO[C@](C)(c1ccccc1)c1ccc(Cl)cc1 [clemastine]
significantly remitted: myelin sheath abnormality in the prefrontal cortexes (MAG signal intensity) [1] | anxiety-like behavior (novelty suppressed feeding test) [2] | anxiety-like behavior (marble-burying behavior test) [3] | social interaction reduction (social interaction test) [4]
